Data: ChEMBL document CHEMBL5126508, “Therapeutic potential of quinazoline derivatives for Alzheimer's disease: A comprehensive review” (Eur J Med Chem, 2022)

What was measured:
Cholinesterase [1] = target: T1, Cholinesterase (Homo sapiens, UniProt P06276); assay: Inhibition of BuChE (unknown origin)
Acetylcholinesterase [2] = target: T2, Acetylcholinesterase (Homo sapiens, UniProt P22303); assay: Inhibition of AChE (unknown origin)
Acetylcholinesterase [3] = target: T3, Acetylcholinesterase (Electrophorus electricus, UniProt O42275); assay: Inhibition of electric eel AChE using acetylthiocholine incubated for 30 mins by measuring hydrolysis of substrate by Ellman's method
[4] = target: T4, Glycogen synthase kinase-3 (Homo sapiens, UniProt P49840+P49841); assay: Inhibition of GSK3alpha/beta (unknown origin) at 1 uM relative to control; format: protein assay
[5] = target: Dual specificity tyrosine-phosphorylation-regulated kinase 1A (Homo sapiens, UniProt Q13627); assay: Inhibition of DYRK1A (unknown origin)
[6] = target: T5, Casein kinase I delta/epsilon (Homo sapiens, UniProt P48730+P49674); assay: Inhibition of CK1delta/epsilon (unknown origin); format: protein-complex assay
[7] = target: T6, Cyclin-dependent kinase 5 (Homo sapiens, UniProt Q00535); assay: Inhibition of CDK5 (unknown origin) at 1 uM relative to control
Target sequence in this assay (Q00535 whole entry, looked up): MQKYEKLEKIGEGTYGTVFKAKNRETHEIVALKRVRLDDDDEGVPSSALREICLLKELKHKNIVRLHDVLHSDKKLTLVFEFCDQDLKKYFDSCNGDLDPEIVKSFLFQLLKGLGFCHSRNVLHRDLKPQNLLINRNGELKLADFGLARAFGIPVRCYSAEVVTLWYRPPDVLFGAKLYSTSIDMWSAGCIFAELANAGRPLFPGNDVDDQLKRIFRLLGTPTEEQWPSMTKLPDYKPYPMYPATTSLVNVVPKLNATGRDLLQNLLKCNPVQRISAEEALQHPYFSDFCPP

[8] = target: T6, Cyclin-dependent kinase 5; assay: Inhibition of CDK5 (unknown origin)
Target sequence in this assay (Q00535 whole entry): as the sequence (Q00535 whole entry, looked up) above

[9] = target: T4, Glycogen synthase kinase-3; assay: Inhibition of GSK3alpha/beta (unknown origin); format: protein assay
[10] = target: Cyclin-dependent kinase 1 (Homo sapiens, UniProt P06493); assay: Inhibition of CDK1 (unknown origin)
[11] = target: T5, Casein kinase I delta/epsilon; assay: Inhibition of CK1delta/epsilon (unknown origin) at 1 uM relative to control; format: protein-complex assay
Cholinesterase [12] = target: T7, Cholinesterase (Equus caballus, UniProt P81908); assay: Inhibition of equine serum BuChE incubated measured after 25 mins by spectrophotometric analysis; format: cell-free
[13] = Ratio of IC50 for electric eel AChE to ratio of IC50 for equine BuChE
[14] = Antioxidant activity assessed as radical scavenging incubated for 90 mins in dark DPPH assay; format: functional
Acetylcholinesterase [15] = target: T2, Acetylcholinesterase; assay: Inhibition of human AChE
Cholinesterase [16] = target: T7, Cholinesterase; assay: Inhibition of equine serum BuChE
[17] = Ratio of IC50 for equine BuChE to IC50 for electric eel AChE
Acetylcholinesterase [18] = target: T3, Acetylcholinesterase; assay: Inhibition of electric eel AChE
[19] = Inhibition of Kainate receptor (unknown origin); set-up: species or system Homo sapiens
Acetylcholinesterase [20] = target: T3, Acetylcholinesterase; assay: Inhibition of electric eel AChE incubated for 25 mins by Ellman's method
Cholinesterase [21] = target: T1, Cholinesterase; assay: Inhibition of BuChE (unknown origin) at 100 uM relative to control
Beta-secretase 1 [22] = target: T8, Beta-secretase 1 (Homo sapiens, UniProt P56817); assay: Inhibition of BACE1 (unknown origin) incubated in dark for 90 mins by FRET assay
[23] = Antioxidant activity assessed as radical scavenging at 100 ug/ml by DPPH assay relative to control; format: functional
Beta-secretase 1 [24] = target: T8, Beta-secretase 1; assay: Inhibition of recombinant human BACE1 in human SH-SY5Y cells using fluorogenic 7-methoxycoumarin-4-yl)acetyl-Ser-Glu-Val-Asn-Leu-Asp-Ala-Glu-Phe-ArgLys(2, 4-dinitrophenyl)-Arg-Arg-NH2 as substrate measured every 5 mins for 120 mins by WCA; format: cell-based
Beta-secretase 1 [25] = target: T8, Beta-secretase 1; assay: Inhibition of recombinant human BACE1 using fluorogenic 7-methoxycoumarin-4-yl)acetyl-Ser-Glu-Val-Asn-Leu-Asp-Ala-Glu-Phe-ArgLys(2, 4-dinitrophenyl)-Arg-Arg-NH2 as substrate measured every 5 mins for 120 mins by CFA
SH-SY5Y = assay: Cytotoxicity against human SH-SY5Y cells; format: functional, cell-based
[26] = Inhibition of PDE7 (unknown origin); set-up: species or system Homo sapiens

T2 sequence (P22303 whole entry): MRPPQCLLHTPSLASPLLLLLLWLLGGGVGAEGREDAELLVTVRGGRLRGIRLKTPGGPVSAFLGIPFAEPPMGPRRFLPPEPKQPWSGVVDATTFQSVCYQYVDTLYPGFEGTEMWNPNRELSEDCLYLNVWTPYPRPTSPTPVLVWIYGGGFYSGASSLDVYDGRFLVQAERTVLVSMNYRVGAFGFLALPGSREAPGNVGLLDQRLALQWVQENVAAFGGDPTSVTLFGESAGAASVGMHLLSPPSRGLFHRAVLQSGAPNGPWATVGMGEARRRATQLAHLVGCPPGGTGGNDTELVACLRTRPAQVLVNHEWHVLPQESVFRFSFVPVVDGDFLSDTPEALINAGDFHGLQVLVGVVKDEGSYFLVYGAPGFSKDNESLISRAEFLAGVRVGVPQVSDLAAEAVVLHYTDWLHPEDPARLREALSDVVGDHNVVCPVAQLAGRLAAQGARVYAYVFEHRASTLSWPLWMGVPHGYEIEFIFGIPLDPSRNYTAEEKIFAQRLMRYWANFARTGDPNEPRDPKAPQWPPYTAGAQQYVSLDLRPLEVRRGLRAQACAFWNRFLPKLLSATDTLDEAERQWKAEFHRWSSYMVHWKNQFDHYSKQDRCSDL
T3 sequence (O42275 whole entry): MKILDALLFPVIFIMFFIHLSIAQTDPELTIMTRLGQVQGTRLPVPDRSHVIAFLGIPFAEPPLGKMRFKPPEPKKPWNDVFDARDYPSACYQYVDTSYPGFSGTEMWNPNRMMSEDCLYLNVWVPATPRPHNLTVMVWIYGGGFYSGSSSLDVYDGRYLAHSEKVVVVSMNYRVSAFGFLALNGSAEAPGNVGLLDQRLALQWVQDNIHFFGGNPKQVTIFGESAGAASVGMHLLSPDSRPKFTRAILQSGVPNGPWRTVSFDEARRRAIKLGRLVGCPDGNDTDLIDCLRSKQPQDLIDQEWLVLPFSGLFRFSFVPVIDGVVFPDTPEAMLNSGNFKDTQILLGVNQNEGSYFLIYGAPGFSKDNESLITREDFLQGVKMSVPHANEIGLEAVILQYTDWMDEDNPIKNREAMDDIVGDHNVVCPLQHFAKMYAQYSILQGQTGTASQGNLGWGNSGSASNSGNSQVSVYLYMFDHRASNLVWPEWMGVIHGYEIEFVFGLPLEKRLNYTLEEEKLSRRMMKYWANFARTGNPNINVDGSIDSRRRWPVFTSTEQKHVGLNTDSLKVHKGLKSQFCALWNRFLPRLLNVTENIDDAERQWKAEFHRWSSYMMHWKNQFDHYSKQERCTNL
T8 sequence (P56817 whole entry): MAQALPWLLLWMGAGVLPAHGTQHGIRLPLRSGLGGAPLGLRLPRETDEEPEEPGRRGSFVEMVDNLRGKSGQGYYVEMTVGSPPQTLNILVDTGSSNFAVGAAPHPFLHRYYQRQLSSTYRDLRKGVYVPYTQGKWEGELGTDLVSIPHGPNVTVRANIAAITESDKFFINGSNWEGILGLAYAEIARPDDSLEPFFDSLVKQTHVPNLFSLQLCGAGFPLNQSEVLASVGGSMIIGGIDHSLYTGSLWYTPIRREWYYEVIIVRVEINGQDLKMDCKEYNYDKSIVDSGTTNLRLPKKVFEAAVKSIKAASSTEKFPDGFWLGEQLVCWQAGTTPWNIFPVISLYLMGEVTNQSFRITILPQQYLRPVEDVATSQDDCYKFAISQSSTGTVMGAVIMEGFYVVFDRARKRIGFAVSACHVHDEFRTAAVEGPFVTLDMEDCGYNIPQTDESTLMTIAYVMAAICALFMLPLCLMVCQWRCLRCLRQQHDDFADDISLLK
T7 sequence (P81908 whole entry): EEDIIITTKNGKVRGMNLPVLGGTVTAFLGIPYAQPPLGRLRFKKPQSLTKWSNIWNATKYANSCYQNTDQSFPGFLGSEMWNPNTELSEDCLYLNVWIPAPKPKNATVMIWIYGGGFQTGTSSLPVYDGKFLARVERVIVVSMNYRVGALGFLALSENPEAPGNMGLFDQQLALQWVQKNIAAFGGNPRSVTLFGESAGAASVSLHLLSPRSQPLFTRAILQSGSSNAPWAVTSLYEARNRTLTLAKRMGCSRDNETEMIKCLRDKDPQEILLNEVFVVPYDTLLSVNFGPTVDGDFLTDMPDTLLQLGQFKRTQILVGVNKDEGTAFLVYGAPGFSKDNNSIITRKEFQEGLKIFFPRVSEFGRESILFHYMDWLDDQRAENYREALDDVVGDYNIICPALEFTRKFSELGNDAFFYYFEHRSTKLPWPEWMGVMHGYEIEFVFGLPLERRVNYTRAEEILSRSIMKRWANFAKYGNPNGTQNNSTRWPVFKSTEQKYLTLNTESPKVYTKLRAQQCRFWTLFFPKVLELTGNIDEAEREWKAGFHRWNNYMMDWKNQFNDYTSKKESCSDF
T1 sequence (P06276 whole entry): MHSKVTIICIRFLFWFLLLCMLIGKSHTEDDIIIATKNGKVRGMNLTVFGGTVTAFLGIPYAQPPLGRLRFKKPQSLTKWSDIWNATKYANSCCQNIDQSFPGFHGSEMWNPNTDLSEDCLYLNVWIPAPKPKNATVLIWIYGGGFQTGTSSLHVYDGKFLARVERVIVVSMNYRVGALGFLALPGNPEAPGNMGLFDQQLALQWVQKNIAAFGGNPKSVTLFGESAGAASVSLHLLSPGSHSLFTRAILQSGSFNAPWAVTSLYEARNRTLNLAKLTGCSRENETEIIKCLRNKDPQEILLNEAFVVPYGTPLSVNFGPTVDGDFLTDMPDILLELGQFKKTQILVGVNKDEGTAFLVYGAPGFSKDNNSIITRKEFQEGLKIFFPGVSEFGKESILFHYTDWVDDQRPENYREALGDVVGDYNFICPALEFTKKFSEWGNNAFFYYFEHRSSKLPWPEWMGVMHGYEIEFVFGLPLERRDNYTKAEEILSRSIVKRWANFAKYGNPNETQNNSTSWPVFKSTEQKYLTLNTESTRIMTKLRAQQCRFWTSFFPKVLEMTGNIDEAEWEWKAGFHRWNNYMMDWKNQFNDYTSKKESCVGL
Cyclin-dependent kinase 1, sequence (P06493 whole entry): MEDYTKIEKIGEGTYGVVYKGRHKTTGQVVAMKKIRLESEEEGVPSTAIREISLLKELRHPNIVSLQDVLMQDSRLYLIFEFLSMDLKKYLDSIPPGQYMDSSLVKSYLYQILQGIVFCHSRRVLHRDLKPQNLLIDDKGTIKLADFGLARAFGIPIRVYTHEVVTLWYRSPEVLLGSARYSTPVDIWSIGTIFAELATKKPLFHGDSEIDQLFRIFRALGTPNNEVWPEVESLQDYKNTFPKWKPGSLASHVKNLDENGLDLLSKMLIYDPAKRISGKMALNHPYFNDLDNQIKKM
T4 sequence (P49840 whole entry, looked up): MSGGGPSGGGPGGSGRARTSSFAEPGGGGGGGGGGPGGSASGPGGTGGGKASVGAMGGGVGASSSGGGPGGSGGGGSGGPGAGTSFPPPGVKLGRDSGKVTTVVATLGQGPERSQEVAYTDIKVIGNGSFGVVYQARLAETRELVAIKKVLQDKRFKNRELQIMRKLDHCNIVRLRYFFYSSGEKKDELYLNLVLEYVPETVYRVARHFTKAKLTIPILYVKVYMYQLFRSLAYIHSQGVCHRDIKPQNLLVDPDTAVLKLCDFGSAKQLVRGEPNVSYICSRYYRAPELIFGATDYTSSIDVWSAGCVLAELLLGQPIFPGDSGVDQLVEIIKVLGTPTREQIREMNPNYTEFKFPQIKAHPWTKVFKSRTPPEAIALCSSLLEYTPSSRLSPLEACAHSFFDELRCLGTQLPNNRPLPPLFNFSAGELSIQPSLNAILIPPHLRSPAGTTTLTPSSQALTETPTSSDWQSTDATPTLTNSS
T4 sequence (P49841 whole entry, looked up): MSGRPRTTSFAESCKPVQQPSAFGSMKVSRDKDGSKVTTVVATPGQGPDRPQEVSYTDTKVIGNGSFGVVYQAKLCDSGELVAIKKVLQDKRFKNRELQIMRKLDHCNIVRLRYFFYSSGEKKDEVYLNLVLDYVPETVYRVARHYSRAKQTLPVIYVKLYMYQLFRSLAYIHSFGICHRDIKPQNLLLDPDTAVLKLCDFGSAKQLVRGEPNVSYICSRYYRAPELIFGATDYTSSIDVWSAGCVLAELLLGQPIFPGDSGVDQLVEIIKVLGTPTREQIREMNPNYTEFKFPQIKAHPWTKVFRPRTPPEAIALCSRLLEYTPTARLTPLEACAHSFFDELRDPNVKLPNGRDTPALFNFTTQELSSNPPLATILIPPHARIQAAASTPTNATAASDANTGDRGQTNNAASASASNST

For `O=c1[nH]c(CCCO)nc2ccccc12`, the IC50 (Cholinesterase [1]) was 105000 nM and the IC50 (Acetylcholinesterase [2]) was 155000 nM.

With `CC1(c2ccc(Cl)cc2)Nc2cc(Cl)ccc2-c2ccnn21` (stereo not drawn) the IC50 (Cholinesterase [1]) was > 379000 nM and the IC50 (Acetylcholinesterase [3]) was 358000 nM.

In the case of `Nc1ncc2cc3cnccc3cc2n1`, the inhibition [4] is reported as > 10%, the IC50 [5] is reported as 180 nM and the IC50 [6] is reported as 800 nM. For the same compound, the inhibition [7] was > 10%.

With `COC(=N)c1nc2ccc3ncnc(Nc4ccc(Br)cc4F)c3c2s1` the IC50 [8] was > 10000 nM, the IC50 [9] was 160 nM and the IC50 [10] was > 10000 nM.

Work on `Nc1ncc2ccc3ccncc3c2n1` yielded an inhibition [4] of 98%, an IC50 [5] of 2180 nM and an inhibition [11] of 98%. For the same compound, the inhibition [7] was 100%.

With `CC(C)CC1(CC(C)C)NC(=O)c2ccccc2N1Cc1ccc(Cl)cc1` the IC50 (Cholinesterase [12]) was 1560 nM and the Ratio IC50 [13] was 2.6.

For `Cn1c(N/N=C/c2cccc(Cl)c2Cl)nc2ccccc2c1=O`, the IC50 [14] was > 100000 nM.

With `c1cc2c(cc1OCCCN1CCCCC1)CN1CCCCCC1=N2` the IC50 (Acetylcholinesterase [15]) was 820 nM, the IC50 (Cholinesterase [16]) was 12.7 nM and the Ratio IC50 [17] was 0.296. The IC50 (Acetylcholinesterase [18]) was 43 nM.

For `COC(=N)c1nc2ccc3ncnc(Nc4ccc(OC)cc4)c3c2s1`, the IC50 [8] was > 10000 nM, the IC50 [9] was 200 nM and the IC50 [10] was > 10000 nM.

Compound `c1cc2c(cc1OCCCN1CCCCC1)CN1CCCCC1=N2` has an IC50 (Acetylcholinesterase [15]) of 225 nM, an IC50 (Cholinesterase [16]) of 6.55 nM and a Ratio IC50 [17] of 0.197. It also gave an IC50 (Acetylcholinesterase [18]) of 33.3 nM.

`O=C(O)c1cc2c3cc(-n4cnnc4)c(Cl)cc3[nH]c(=O)n2n1` gave an IC50 [19] of 5500 nM.

With `Cc1ccccc1-n1c(SCC(=O)N/N=C/c2ccc(Br)cc2)nc2ccccc2c1=O` the IC50 (Acetylcholinesterase [20]) was 210000 nM and the inhibition (Cholinesterase [21]) was 6.8%.

For `Cn1c(N/N=C/c2ccc(O)cc2O)nc2ccccc2c1=O`, the IC50 (Beta-secretase 1 [22]) was 27600 nM and the IC50 [14] was 8400 nM.

`CSc1nc2nc(NNC(=S)NC3CCCCC3)c3ccccc3n2n1` showed an inhibition [23] of 91.2%.

For `CC1c2cc(Oc3ccccc3)ccc2N=C(N)N1CCCC(=O)N(Cc1cnn(C)c1)C1CCCCC1` (stereo not drawn), the IC50 (Beta-secretase 1 [24]) was 140 nM, the IC50 (Beta-secretase 1 [25]) was 380 nM and the IC50 (SH-SY5Y) was 12500 nM.

Work on `CC(C)CC1(CC(C)C)NC(=O)c2ccccc2N1Cc1ccccc1` yielded an IC50 (Cholinesterase [12]) of 2480 nM and a Ratio IC50 [13] of 3.1.

Work on `O=c1c2ccccc2nc2n1C(C1CN=Cc3[nH]c4ccccc4c31)CC2O` (stereo not drawn) yielded an IC50 (Cholinesterase [1]) of 9260 nM and an IC50 (Acetylcholinesterase [2]) of 40500 nM.

For `CSc1nc2nc(NN)c3ccccc3n2n1`, the inhibition [23] was 85.9%.

`c1ccc2c(c1)CN1Cc3cc(OCCCN4CCCCC4)ccc3N=C21` showed an IC50 (Acetylcholinesterase [15]) of 142 nM, an IC50 (Cholinesterase [16]) of 4140 nM and a Ratio IC50 [17] of 600. It also gave an IC50 (Acetylcholinesterase [18]) of 6.9 nM.

Work on `C=CCNC(=S)NNc1nc2nc(SC)nn2c2ccccc12` yielded an inhibition [23] of 91%.

Work on `O=c1c2cccc(Cl)c2[nH]c(=S)n1-c1c(F)cccc1F` yielded an IC50 [26] of 6100 nM.

`OC1CCN2Cc3ccccc3N=C12` (stereo not drawn) showed an IC50 (Cholinesterase [1]) of 2600 nM and an IC50 (Acetylcholinesterase [2]) of 13700 nM.

Work on `c1ccc2c(c1)CN1CCCC1=N2` yielded an IC50 (Cholinesterase [1]) of 40 nM and an IC50 (Acetylcholinesterase [2]) of 2370 nM.
